Structures can show the parent of a compound that is named as a salt. Where two headings read alike, the source gives them in different places.
Target: T1, His6-AspH315–758 (human aspartate/asparagine-β-hydroxylase, AspH) (Homo sapiens, UniProt Q12797)
T1 construct: N-Terminally His6-tagged human AspH315–758 (His6-AspH315–758) was produced in E. coli BL21 (DE3) cells; made in house; host or cells: E. coli BL21 (DE3), pET-28a(+) vector
T1 sequence (Q12797 315-758): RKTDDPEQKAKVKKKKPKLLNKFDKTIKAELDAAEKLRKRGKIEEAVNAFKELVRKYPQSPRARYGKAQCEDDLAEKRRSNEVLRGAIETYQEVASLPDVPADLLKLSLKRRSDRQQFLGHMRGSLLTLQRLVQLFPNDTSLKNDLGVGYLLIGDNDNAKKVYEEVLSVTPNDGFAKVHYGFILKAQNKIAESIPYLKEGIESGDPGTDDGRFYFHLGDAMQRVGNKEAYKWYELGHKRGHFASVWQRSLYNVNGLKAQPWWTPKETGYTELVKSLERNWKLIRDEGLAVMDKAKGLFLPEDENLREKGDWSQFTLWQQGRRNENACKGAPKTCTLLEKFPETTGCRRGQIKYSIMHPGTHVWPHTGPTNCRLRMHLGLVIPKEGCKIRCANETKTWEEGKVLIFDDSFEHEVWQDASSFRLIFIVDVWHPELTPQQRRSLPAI
Test: SPE-MS AspH inhibition assay (LOPAC screen at fixed 20 μM and IC50 dose-response), hydroxylation of cyclic peptide hFX-CP101–119
Type: biochemical

[1] = LOPAC compound at 20uM, plate 3, conversion of substrate peptide
[2] = LOPAC compound at 20uM, plate 2, conversion of substrate peptide
[3] = LOPAC compound at 20uM, plate 2, normalised to DMSO and 2,4-PDCA controls, read-out: Plate 2 (% inhibition)
[4] = LOPAC Plate 4, compound at 20 uM, substrate conversion
[5] = LOPAC compound at fixed 20 uM, plate 1, normalised to DMSO and 2,4-PDCA controls
[6] = plate 5 (Pfitzer), test compounds at fixed 20 μM
[7] = plate 5 (Pfitzer), test compounds at fixed 20 μM, mean conversion DMSO 32.88
[8] = LOPAC compound at fixed 20 uM, substrate conversion, plate 1
[9] = LOPAC Plate 4, compound at 20 uM, read-out: % inhibition

Br.CCCN1CCC2c3cc(O)ccc3CCC21 (racemic) [cis(+/-)-8-OH-PBZI hydrobromide]
Plate 3 (% conversion) [1]: 33.20%

Cl.Cl.c1ccc(CCCN2CCN(CCOC(c3ccccc3)c3ccccc3)CC2)cc1 [GBR-12935 dihydrochloride]
Plate 2 (% conversion): 46.64% | Plate 2 (% inhibition) (20 µM): -31.91%

CCC1(C2=NCCN2)Cc2ccccc2O1 (stereo not drawn) [Efaroxan hydrochloride]
Plate 2 (% conversion) [2]: 34.90% | inhibition at 20 µM [3]: 3.14%

C=CCNc1ncnc2ccc(Br)cc12 [SMER28]
% conversion [4]: 30.76%

Cl.NC1(C(=O)O)CC1
Plate 1 (% inhibition) [5]: -3.97%

CSc1ccccc1N1CCN(CCCCCC(=O)NC2CCCc3ccccc32)CC1 (stereo not drawn) [LP44]
Plate 3 (% conversion) [1]: 36.33%

CCCCN(CC)c1nc(C)nc2c1c(C)cn2-c1c(C)cc(C)cc1C [CP-154526]
Plate 5 (% inhibition) [6]: -9.05% | Plate 5 (% conversion) [7]: 39.39%

CCN(CC)CCCCNc1ncc2cc(-c3c(Cl)cccc3Cl)c(NC(=O)NC(C)(C)C)nc2n1 [PD-161570]
Plate 3 (% conversion) [1]: 41.21% | Plate 5 (% inhibition) [6]: -29.14% | Plate 5 (% conversion) [7]: 46.23%

C[N+]1(C)[C@@H]2C[C@@H](OC(=O)[C@H](CO)c3ccccc3)C[C@H]1[C@@H]1O[C@@H]12 [(-)-Scopolamine methyl bromide]
% conversion: 37.79%

CCOC(=O)c1ccc(C#Cc2ccc3c(c2)C(C)(C)CCS3)nc1 [Tazarotene]
% conversion [4]: 39.09%

NCCCC(=O)O [GABA]
Plate 1 (% inhibition) [5]: -1.98% | Plate 1 (% conversion) [8]: 36.54%

CN1CCN(C2Cc3ccccc3Sc3ccc(Cl)cc32)CC1.O=C(O)/C=C\C(=O)O (racemic) [(±)-Octoclothepin maleate]
Plate 3 (% conversion): 45.22%

NC(=O)c1ncn([C@@H]2O[C@H](CO)[C@@H](O)[C@H]2O)n1 [Ribavirin]
% conversion [4]: 38.92% | inhibition at 20 µM [9]: -7.18%

O=C(CCCN1CCC2(CC1)C(=O)NCN2c1ccccc1)c1ccc(F)cc1 [Spiperone hydrochloride]
% conversion [4]: 26.03% | inhibition at 20 µM [9]: 30.6%

CCCn1c(=O)[nH]c(=O)c2nc[nH]c21 [3-n-Propylxanthine]
Plate 3 (% conversion) [1]: 38.43%

C[N+](C)(C)CCOC(=O)CBr.[Br-] [Bromoacetylcholine bromide]
Plate 1 (% conversion): 36.25% | Plate 1 (% inhibition): -1.12%

COCCOc1cc2nc[nH]c(=O)c2cc1OCCOC [CP-380736]
Plate 1 (% conversion): 40.54% | Plate 1 (% inhibition): -13.90% | Plate 5 (% conversion): 31.91% | Plate 5 (% inhibition): 12.94%

Br.CN1Cc2sccc2C(c2ccc(O)c(O)c2)C1 (stereo not drawn) [SKF-89145 hydrobromide]
Plate 1 (% inhibition) [5]: 78.75% | Plate 1 (% conversion) [8]: 9.43%

O=C(O)/C=C\C(=O)O.O=[N+]([O-])c1ccc2nc(N3CCNCC3)ccc2c1 [Quipazine, 6-nitro-, maleate]
% conversion [4]: 31.15%

Clc1ccc2c(c1)C(N1CCNCC1)=Nc1ccccc1O2 [Amoxapine]
Plate 1 (% inhibition) [5]: -8.96% | Plate 1 (% conversion) [8]: 38.88%

NC(N)=NCc1cccc(I)c1.NC(N)=NCc1cccc(I)c1.O=S(=O)(O)O [m-Iodobenzylguanidine hemisulfate]
Plate 3 (% conversion) [1]: 36.94%

O=C(Nc1cccnc1)N1CCC(Cc2cccc(Oc3ccc(C(F)(F)F)cn3)c2)CC1 [PF-3845]
Plate 5 (% inhibition) [6]: -5.26% | Plate 5 (% conversion) [7]: 38.10%

CCC1(c2ccccc2)C(=O)NCNC1=O [Primidone]
% conversion [4]: 31.08%

C/C(=C\c1ccc(C(=O)O)cc1)c1ccc2c(c1)C(C)(C)CCC2(C)C [TTNPB]
% conversion [4]: 26.33%

NCCCNCCSP(=O)(O)O [Amifostine]
Plate 1 (% conversion): 40.67% | Plate 1 (% inhibition) [5]: -14.28%

CSc1nc(N)c2ncn([C@@H]3O[C@H](COP(=O)([O-])OP(=O)([O-])OP(=O)([O-])[O-])[C@@H](O)[C@H]3O)c2n1.[Na+].[Na+].[Na+].[Na+]
Plate 1 (% inhibition) [5]: 63.66% | Plate 1 (% conversion) [8]: 14.49%

Cc1ccc(S(=O)(=O)NC(=O)NN2CCCCCC2)cc1 [Tolazamide]
% conversion [4]: 36.66%

CCCCCCCCCCCCCC(=O)O[C@@H]1[C@@H](C)[C@@]2(O)[C@@H](C=C(CO)C[C@]3(O)C(=O)C(C)=C[C@@H]23)[C@@H]2C(C)(C)[C@]12OC(C)=O [Phorbol 12-myristate 13-acetate]
% conversion: 39.27%

Cl.NNC(N)=O [Semicarbazide hydrochloride]
% conversion: 22.57%

Cn1c(=O)c2[nH]cnc2n(C)c1=O.Cn1c(=O)c2[nH]cnc2n(C)c1=O.NCCN [Aminophylline ethylenediamine]
Plate 1 (% inhibition) [5]: -9.00% | Plate 1 (% conversion) [8]: 38.90%

CCT007093
% inhibition (LOPAC Plate 4, compound at 20 uM): 2.20% | % conversion [4]: 35.72%

CC(C)Cn1c(=O)n(C)c(=O)c2[nH]cnc21 [3-Isobutyl-1-methylxanthine]
Plate 3 (% conversion): 38.13%

Cl.c1ccc2nc(C3=NCCN3)ccc2c1 [BU224 hydrochloride]
Plate 1 (% inhibition) [5]: -5.25% | Plate 1 (% conversion) [8]: 37.63%

CCOC(=O)[N-]c1cn(N2CCOCC2)n[o+]1 [Molsidomine]
Plate 3 (% conversion): 34.83%

O=CN(O)CCCP(=O)([O-])O.[Na+] [Fosmidomycin sodium salt hydrate]
Plate 3 (% conversion) [1]: 34.84%

C[C@@]1(C2CCCC2)Cc2cc(OCC(=O)O)c(Cl)c(Cl)c2C1=O [R(+)-IAA-94]
Plate 3 (% conversion) [1]: 30.54%

OC[C@H]1O[C@@H](n2cnc3c(N[C@H]4CCC[C@@H]4O)ncnc32)[C@H](O)[C@@H]1O [GR 79236X]
Plate 1 (% inhibition) [5]: -7.17% | Plate 1 (% conversion) [8]: 38.28%

Nn1nnc2ccccc21 [1-Aminobenzotriazole]
Plate 1 (% inhibition) [5]: -4.79% | Plate 1 (% conversion) [8]: 37.48%

CCCN1CCc2cccc3c2[C@H]1Cc1ccc(O)c(O)c1-3.Cl [R(-)-Propylnorapomorphine hydrochloride]
Plate 2 (% conversion): 7.83% | Plate 2 (% inhibition) (20 µM): 84.00%

CC(C(=O)O)c1cccc(C(=O)c2ccccc2)c1 (stereo not drawn) [Ketoprofen]
Plate 3 (% conversion) [1]: 34.58%

CC(N/C(=N\C#N)Nc1ccncc1)C(C)(C)C (stereo not drawn) [Pinacidil]
% conversion [4]: 37.72%

CC(=O)C(C)=NO [2,3-Butanedione monoxime]
Plate 1 (% inhibition) [5]: -3.18% | Plate 1 (% conversion) [8]: 36.94%

NCCCP(=O)(O)O [3-Aminopropylphosphonic acid]
Plate 1 (% conversion): 37.53% | Plate 1 (% inhibition): -4.94%

CO[C@H]1C[C@@H]2CC[C@@H](C)[C@@](O)(O2)C(=O)C(=O)N2CCCC[C@H]2C(=O)O[C@H]([C@H](C)C[C@@H]2CC[C@@H](OC(=O)C(C)(CO)CO)[C@H](OC)C2)CC(=O)[C@H](C)/C=C(\C)[C@@H](O)[C@@H](OC)C(=O)[C@H](C)C[C@H](C)/C=C/C=C/C=C/1C [Temsirolimus]
Plate 5 (% inhibition) [6]: 52.39% | Plate 5 (% conversion) [7]: 18.48%

NC1(C(=O)O)CCc2cc(C(=O)O)ccc21 (stereo not drawn) [AIDA]
Plate 1 (% inhibition) [5]: 3.11% | Plate 1 (% conversion) [8]: 34.83%

C#CCOC(=O)C1=CCCN(C)C1 [Arecaidine propargyl ester hydrobromide]
Plate 1 (% conversion): 37.75% | Plate 1 (% inhibition): -5.59%

O=C1NC(=O)C(c2ccccc2)(c2ccccc2)N1 [5,5-Diphenylhydantoin]
Plate 2 (% conversion) [2]: 35.84% | inhibition at 20 µM [3]: 0.33%

CC(NCCc1ccc(O)cc1)C(O)c1ccc(O)cc1 (stereo not drawn) [Ritodrine hydrochloride]
% conversion [4]: 37.24% | inhibition at 20 µM [9]: -2.24%

O=C1C=CC(=O)C=C1 [p-Benzoquinone, reference compound]
Inhibition at 20 µM [%]: 99.3% | Plate 1 (% conversion): 2.52% | Plate 1 (% inhibition): 99.30%

CC[C@H](C)C(=O)O[C@H]1CCC=C2C=C[C@H](C)[C@H](CC[C@@H]3C[C@@H](O)CC(=O)O3)[C@H]21 [Mevastatin]
Plate 3 (% conversion) [1]: 41.68%

Cc1cc(C(C)(C)C)c(O)c(C)c1CC1=NCCN1 [Oxymetazoline hydrochloride]
Plate 3 (% conversion) [1]: 41.41%

CN(C)CCOC(=O)COc1ccc(Cl)cc1 [Centrophenoxine hydrochloride]
Plate 1 (% conversion): 36.66% | Plate 1 (% inhibition): -2.35%

NC(=O)CC[C@H](N)C(=O)O [L-Glutamine]
Plate 2 (% conversion) [2]: 35.03% | inhibition at 20 µM [3]: 2.77%

CN(C)C/C=C(/c1ccc(Br)cc1)c1cccnc1 [Zimelidine dihydrochloride]
% conversion [4]: 37.91%

CN[C@@H]1CC[C@@H](c2ccc(Br)cc2)c2ccccc21.Cl [CP-53631]
Plate 5 (% conversion): 37.76% | Plate 5 (% inhibition): -4.23%

CCOC(=O)C1=C(O)C(=O)N(Cc2ccccc2)C1 [EBPC]
% conversion [4]: 36.52% | Plate 5 (% inhibition) [6]: 19.44% | Plate 5 (% conversion) [7]: 29.70%

O=C(O)C=Cc1c[nH]cn1 [4-Imidazoleacrylic acid]
% conversion: 20.39%

COc1cc(C(O)C(=O)O)ccc1O (racemic) [(±)-Vanillylmandelic acid]
Plate 2 (% conversion) [2]: 32.67% | Plate 2 (% inhibition) (LOPAC compound at 20uM, plate 2, normalised to DMSO and 2,4-PDCA controls): 9.80%

From publication PMC7251097, “Aspartate/asparagine-β-hydroxylase: a high-throughput mass spectrometric assay for discovery of small molecule inhibitors” (Scientific Reports, 2020)
